Measured values: patent publication US20260167608A1, “CRYSTALLINE FORMS OF 4-(7-HYDROXY-2-ISOPROPYL-4-OXO-4H-QUINAZOLIN-3-YL)-BENZONITRILE AND FORMULATIONS THEREOF” (Bausch + Lomb Ireland Limited, priority 2019, published 2026)
≈ marks a conversion by molar mass, not a printed value.

Assays:
[1] = Conversion of crystal form C in 1:1 mixtures with other crystal forms in solvent; type: physicochemical
[2] = Intrinsic dissolution rate at 37° C.; type: physicochemical
[3] = Equilibration with solvent at 25° C., solid investigated by XRPD; type: physicochemical; set-up: key to XRPD change after equilibration: “−”: no change detected; “+”: change detected; “//”: not carried out because substance too soluble in the solvent
Experimental: Equilibration with Solvent at 25° C.
For equilibration at 25° C., about 50 mg of compound I was equilibrated with 1 ml solvent for 24 h in a water bath at 25° C.±0.1. The solutions were filtered and dried for 10 minutes in the air. The solid part was investigated by XRPD (X-ray powder diffraction). If differences were observed additional investigations were performed as appropriate (e.g. DSC, TG, IR, SEM).
The X-ray powder diffraction (XRPD) patterns described herein were recorded on a Bruker D8 Advance diffractometer using CuKα radiation. The XRPD pattern was recorded between 2° and 40° (2-theta).

[4] = Solubility of crystal form E at 25° C., analysis by HPLC; type: physicochemical; details: thermodynamic from solid
Experimental: Solubility of crystal form E was measured at 25° C.

[5] = Hygroscopicity (water uptake) of crystal form E; type: physicochemical
Experimental: The maximum water uptake is less than 0.1% at 25° C. up to 92% relative humidity.

[6] = Pharmacokinetic study of exploratory formulations, single bilateral topical ocular dosing; type: in vivo, rabbit; details: male NZW rabbits
Experimental: A pharmacokinetics study was conducted to determine the ocular uptake of compound I following single bilateral topical ocular dosing of male NZW rabbits with the same four exploratory formulations provided in Table 13: FID 12152, FID 121511, FID 121512, FID 121513.

[7] = Exploratory formulation stability at room temperature and 40° C. (UPLC assay); type: physicochemical; details: part of compound I in solution in the supernatant; after 12 weeks at 40° C.
Experimental: Based on the limited solubility of compound I in various solvents and in water, a suspension formulation was explored for development. The following five formulations were prepared and tested for stability. Formulations were stored in crimp-sealed glass vials at room temperature and at 40° C. At 6, 8 and 12 weeks, samples were evaluated for compound I stability.
The formulations prepared in Table 13 were assayed using an exploratory UPLC method developed for the assay of compound I as shown in Table 14.
Results from the testing for compound I stability at room temperature and 40° C. are shown in FIG. 14A and FIG. 14B, respectively. […] In contrast, the part of compound I in solution in the supernatant degrades to about 20% of initial amount after 12 weeks at 40° C.

[8] = equilibration at 25° C., solvent t-butylmethylether

SMILES: CC(C)c1nc2cc(O)ccc2c(=O)n1-c1ccc(C#N)cc1 [Crystal form C, 4-(7-Hydroxy-2-isopropyl-4-oxo-4H-quinazolin-3-yl)-benzonitrile]
- conversion of crystal form ([1]; 1:1 mixture with crystal form A, in methanol): converted in methanol to Solvate SB (crystal form G)
- conversion of crystal form ([1]; 1:1 mixture with crystal form B, in isopropanol): converted in isopropanol to crystal form B

SMILES: CC(C)c1nc2cc(O)ccc2c(=O)n1-c1ccc(C#N)cc1 [Crystal form E, 4-(7-Hydroxy-2-isopropyl-4-oxo-4H-quinazolin-3-yl)-benzonitrile]
- Intrinsic dissolution rate (IDR) at 37° C. ([2]; HCl 0.1 N): 0.0194 mg min^−1 cm^−2
- Intrinsic dissolution rate (IDR) at 37° C. ([2]; pH 3): 0.0025 mg min^−1 cm^−2
- Comments ([3]; equilibration at 25° C., solvent Acetone): too soluble
- XRPD change after equilibration ([3]; equilibration at 25° C., solvent Cyclohexane): −
- XRPD change after equilibration ([3]; equilibration at 25° C., solvent Ethanol abs.): −
- XRPD change after equilibration ([3]; equilibration at 25° C., solvent Ethyl acetate): −
- XRPD change after equilibration ([3]; equilibration at 25° C., solvent Water): −
- Comments [3, 8]: amorphous
- XRPD change after equilibration [3, 8]: +
- Comments ([3]; form E mixed with form B, equilibration at 25 degree C., solvent Ethanol abs.): converts into crystal form B
- solubility ([4]; acetate buffer pH 4.5, 25 °C, aqueous buffer, Buffer pH 4.5 (acetate)): 10 µg/mL (≈ 32.8 µM)
- solubility ([4]; buffer pH 1 (0.1 N HCl), 25 °C, pH 1, simulated gastric fluid): 345 µg/mL (≈ 1130 µM)
- solubility ([4]; phosphate buffer pH 6.88, 25 °C, aqueous buffer, Buffer pH 6.88 (phosphate)): 11 µg/mL (≈ 36 µM)
- hygroscopicity [5]: non-hygroscopic
- maximum water uptake ([5]; at 25° C. up to 92% relative humidity): less than 0.1%

SMILES: CC(C)c1nc2cc(O)ccc2c(=O)n1-c1ccc(C#N)cc1 [compound I, 4-(7-hydroxy-2-isopropyl-4-oxo-4H-quinazolin-3-yl)-benzonitrile]
- exposure in the cornea, times the levels in plasma [6]: approximately 500 times
- exposure in the cornea, times the levels in the aqueous humor and iris-ciliary body [6]: approximately 10 times
- compound I remaining, of initial amount [7]: about 20%
